Test results reported in PMC8097335, “A High‐Affinity Calmodulin‐Binding Site in the CyaA Toxin Translocation Domain is Essential for Invasion of Eukaryotic Cells” (Advanced Science, 2021).
pKd, pKi: −log10 of the molar value.

Columns and labels:
[1] = molecular target: holo-CaM; conditions: cited from earlier work
[2] = system: adenylate cyclase (AC384GK, catalytic domain of CyaA); assay: CaM-dependent adenylate cyclase activity with or without calmidazolium; format: biochemical, Bordetella pertussis; conditions: CDZ 10 µM, assayed in the presence of 1 µM CaM
Description: (§1) T PCK-treated trypsin (Millipore Sigma, Burlington, MA, USA) for 10 min at 30°C to digest the adenylate cyclase that remained at the external surface of the erythrocytes. A 5-fold excess of soybean trypsin inhibitor was added and cells were washed with buffer A and lysed with 0.1% Tween 20. The activity protected from trypsin digestion corresponds to the internalized toxin. Activities are expressed as percentages of total toxin added to the erythrocytes (taken as 100%) and represent average values from at least three independent measurements. One unit of CyaA activity corresponds to 1 μmol of cAM P formed per min at 30°C and pH 8.0. The bound and internalized AC activities measured with the CyaA recombinant proteins were normalized to that of the WT CyaA toxin. […]
(§2) then resuspended in cold buffer A plus 2 mM CaCl2 and split in two fractions. […] After addition of soybean trypsin inhibitor, the cells were washed with buffer A then lysed with 0.1% Tween 20 and the internalized AC activity protected from trypsin digestion was measured and expressed as a percentage of bound AC activity. […]
(§3) Tryptophan fluorescence is used for the SEC profiles because this allows monitoring the […]
Figure S15: CaM-dependent activation of AC with or without calmidazolium (C D Z ) . […] Th e adenylate cyclase activity is expressed as mol of cAMP per sec per mol of AC384GK. […]

[3] = system: CaM; assay: Size exclusion chromatography of P454, H and AC364 with CaM in the presence of CDZ; format: binding; conditions: SEC, buffer B, CaM 15 µM, CDZ 40 µM, tryptophan fluorescence
Description: T PCK-treated trypsin (Millipore Sigma, Burlington, MA, USA) for 10 min at 30°C to digest the adenylate cyclase that remained at the external surface of the erythrocytes. A 5-fold excess of soybean trypsin inhibitor was added and cells were washed with buffer A and lysed with 0.1% Tween 20. The activity protected from trypsin digestion corresponds to the internalized toxin. Activities are expressed as percentages of total toxin added to the erythrocytes (taken as 100%) and represent average values from at least three independent measurements. One unit of CyaA activity corresponds to 1 μmol of cAM P formed per min at 30°C and pH 8.0. The bound and internalized AC activities measured with the CyaA recombinant proteins were normalized to that of the WT CyaA toxin.
For the CyaA intoxication experiments in the presence of calmidazolium (CDZ), in order to minimize the cell exposure to this potent CaM inhibitor, we performed a two-step intoxication assay as described originally by Rogel and Hanski 19. For this, the erythrocytes (5 x 10^8 cells/mL) were in a first step incubated with CyaA (1 μg/mL, 5.6 nM) in buffer A plus 2 mM CaCl2 at 4 °C for 30 min. In these conditions, the toxin can bind to the cell membrane but cannot translocate across membrane 19. […]
as §2
The SEC experiments were performed on a TSKgel G3000SW 7.5 mm ID * 30 cm - column equilibrated in buffer B at a flow rate of 0.6 mL/min at RT. The elution profiles were measured by absorbance at 280 nm, conductivity and by tryptophan fluorescence on a FP750 fluorometer (Ex.: 280 nm; Em.: 340 nm; bandwidths 10/10 nm ) equipped with a on -line cell .
as §3
weak fluorescence signal. […]
fluorescence signal. […]

[4] = system: sheep erythrocytes; assay: Two-step CyaA intoxication assay with or without calmidazolium; format: cell-based; conditions: CyaA […] bound at 4 °C 30 min, 10 μM CDZ added just prior to shift from 4 to 37 °C; 2, 5, 10 min; three independent replicates
Description: as §1, §2, §3

[5] = Membrane permeabilization of ANTS/DPX-loaded LUVs
Description: To monitor membrane permeabilization induced by peptides, ANTS (fluorophore probe) and
DPX (quencher) were encapsulated into large unilamellar vesicles (LUVs). The LUVs were
prepared at a concentration of 10 mM lipid at a POPC:PO PG molar ratio of 8:2 containing 20
mM ANTS and 60 mM DPX. The multilamellar vesicle suspension was extrudedthrough 0.4-
and 0.2 μm polycarbonate filters to produce LUVs. The unencapsulated ANT S a nd DPX we re
removed by gel filtration with a 5 mL Sephadex G -25 column (GE Healthcare Life Sciences ).
For permeabilization assays, LUVs were incubated in buffer A at 0.45 mM lipid
concentration at 25°C in a 101-QS cuvette (Hellma, France) and under constant stirring.
excitation wavelength was set at 390 nm and the emission of ANTS was continuously
measured at 515 nm. The maximum intensity of permeabilization, corresponding to the
maximum recovery of ANTS fluorescence, was measured after addition of 0.1% of Triton
X100. The concentration of membrane-bound peptide s required to induce the recovery of half
intensity of the ANTS fluorescence (C P1/2) was extracted from the permeabilization intensity
a s a function of peptide concentration 1.
LUVs were incubated in buffer B at a lipid concentration of 0.45 mM.
After a few seconds of permeabilization,
holo-Ca M wa s added t o t he solution at a peptide:Ca M molar ratio of 1:3. EDT A wa s
subsequently added in excess to chelate calcium and convert holo -CaM to apo -C a M .

[6] = Sedimentation velocity analytical ultracentrifugation; format: physicochemical; conditions: 57 µM peptide alone, 20 °C, buffer B
Source text: 400 nm at a scan rate of 100 nm/min, with an excitation wavelength of 280 nm. Fluorescence emission spectra were corrected for SUV or CaM baselines . Fluorescence intensity ratio at 330 nm over 370 nm was use d to measure the partition coefficient (K X) of peptides between the solution andmembrane s 1, 12 and the affinity (K d) of peptides for CaM 13.
Determination of partition coefficient KX and dissociation constant Kd from […]
The partition coefficient KX is defined as the ratio of protein in the lipid (PL) and in buffer […]
(PW) pha se s 12, 14, expressed by: KKXX = [LL ]? , giving[PPWW ] [PPWW ]= [WW], where [W] the […]
concentration of water (55.5 M) and [L] the lipid concentration. […]
The dissociation constant, Kd, is obtained from titration experiments of the P454-derived peptides by CaM and is expressed as follows: KK dd = [PP ]∗[CCCCCC ][PP:CCCCCC] , given KKdd[CCCCCC]= [PP ][PP :CCCCCC]and the fraction of complex, fP:CaM, i s: ffPP:CCCCCC = [PP :CCCCCC ][PP:CCCCCC]+[PP]= 11+ [PP ]= 11+ KKdd. […]
ratio 1:1 (at 70 µM each). […] Detection of protein concentration as a function of radial position and time was monitored with the ProteomeLab software (Beckman Coulter, […]
Brea, CA, USA) by both absorbance at 280 nm and interferometry. […] SV scans were analyzed using the continuous size distribution model c(s) of the software Sedfit 15. […]

[7] = Synchrotron radiation circular dichroism, alpha-helical content (Bestsel); format: physicochemical; conditions: 25 °C, far-UV SRCD
Description: Synchrotron Radiation Circular Dichroism
Synchrotron radiation circular dichroism (SRCD) was performed on the DISCO beamline of the synchrotron SOLEIL (Saint -Aubin, France) . Spectra were recorded at 25°C with an integration time of 1.2 s and a bandwidth of 1 nm with a resolution of 1 nm. A far-UV spectrum represents the average of four individual scans. QS cells (Hellma, France) with a pathlength of 20, 50, 100 or 200 μm (depending on final protein concentrations) were used to record spectra in the fa r -UV range (from 190 to 250 nm). CD spectra of peptides and proteins were measured in buffers A and B, 20% of trifluoroethanol (TFE), in the presence of SUVs (POPC :PO PG 8: 2) or Ca M. Secondary structure content was estimated using Bestsel software […]
Table S8: Estimation of the α -helical content of P454-derived peptides. The secondary structure content is estimated using the on-line Bestsel software 17 available at http://bestsel.elte.hu/index.php. […]
peptide in buffer A, in 20% TFE and in the presence of POPC POPG (molar ratio 8:2) at 2 mM lipid concentration. The far -UV CD spectra of several P454-derived peptides are shown […]

[8] = Peptide titrations by SUVs followed by tryptophan fluorescence (solution-to-membrane partition); format: physicochemical
Procedure, shortened: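 Peptides were titrated with POPC:POPG (8:2) SUVs at 25°C, with tryptophan fluorescence excited at 280 nm and emission recorded 300–400 nm. The 330/370 nm intensity ratio, corrected for SUV baseline, was fitted to a partition model to obtain the solution-to-membrane partition coefficient KX.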

Row | Structure (SMILES) | pKi [1] | Effect on AC enzymatic activity [2] | Effect of CDZ on CaM association with the AC domain ([3]; AC364 10 µM) | Effect of CDZ on the H:CaM complex ([3]; H 10 µM) | Effect of CDZ on CaM association with P454 ([3]; P454 10 µM) | Amount of internalized AC with CDZ [4] | CP1/2, peptide concentration required to induce recovery of 50% of ANTS fluorescence intensity upon LUVs permeabilization ([5]; ANTS:DPX LUVs POPC:POPG 8:2, 0.45 mM lipid, buffer A pH 7.4, 25 °C, ex 390/em 515 nm, S.D. ± 5%) [µM] | Effect of holo-CaM addition on peptide-induced vesicle permeabilization ([5]; LUVs 0.45 mM lipid, buffer B (2 mM CaCl2), peptide:CaM molar ratio 1:3) | Sedimentation coefficient [6] [S] | alpha-helical content, TFE 20% ([7]; 20% TFE) [%] | alpha-helical content, POPC:POPG 8:2 ([7]; SUVs POPC:POPG 8:2 at 2 mM lipid) [%] | alpha-helical content, Solution ([7]; buffer A) [%] | Partition coefficient KX ([8]; POPC:POPG 8:2 SUVs, buffer A pH 7.4, 25 °C, tryptophan fluorescence ratio 330/370 nm, S.D. within ± 10%) | Partition coefficient Kx ([8]; POPC:POPG 8:2 membranes) | pKd ([8]; converted from KX: [W]/KX = Kd, [W] = 55.5 M, read-out: Kd for POPC:POPG 8:2) | ∆GKx for POPC POPG 8:2 ([8]; ∆GKx = -RT Ln Kx, S.D. within ± 10%) [kcal/mol]
1 | Clc1ccc(C(c2ccc(Cl)cc2)n2cc[n+](CC(OCc3ccc(Cl)cc3Cl)c3ccc(Cl)cc3Cl)c2)cc1 (stereo not shown) [CDZ, Calmidazolium chloride] | 7.30 to 8.00 | no inhibitory effect | not with the AC domain | partially inhibited | can specifically inhibit | drastically reduced |  |  |  |  |  |  |  |  |  | 
2 | CC[C@H](C)[C@H](NC(=O)[C@H](C)NC(=O)[C@H](Cc1c[nH]cn1)NC(=O)[C@@H](NC(=O)[C@H](CC(C)C)NC(=O)[C@H](CCCNC(=N)N)NC(=O)[C@H](CCC(N)=O)NC(=O)[C@H](C)NC(=O)[C@H](C)NC(=O)[C@H](C)NC(=O)[C@@H](NC(=O)[C@H](C)NC(=O)[C@H](CCC(N)=O)NC(=O)[C@H](C)NC(=O)CNC(=O)[C@H](CCC(N)=O)NC(=O)[C@H](CC(C)C)NC(=O)[C@H](C)NC(=O)[C@H](CCCNC(=N)N)NC(=O)[C@H](CCC(N)=O)NC(=O)CNC(=O)[C@H](Cc1c[nH]c2ccccc12)NC(=O)[C@H](Cc1c[nH]cn1)NC(=O)[C@H](C)NC(=O)[C@H](CO)NC(=O)[C@H](C)NC(C)=O)C(C)C)C(C)C)C(=O)N[C@@H](C)C(=O)N[C@@H](CC(C)C)C(=O)N[C@@H](CCSC)C(=O)N[C@H](C(=O)N[C@@H](CCC(N)=O)C(N)=O)[C@@H](C)O [P454] |  |  |  |  |  |  | 0.07 | immediately stopped | 0.65 | 60 ± 2 | 50 ± 1 | 17 ± 2 | 790 ×10^3 | 790 000 | 4.15 | -8
